Publication PMC12155096 (International Journal of Molecular Sciences, 2025)
Where a name gives a salt, the structure may show the parent alone. Read-outs that look alike come from different tables or passages of the source.

Tests used:
[1] = target: T1, human CYP1A2 (Homo sapiens, UniProt P05177); assay: biochemical
T1 sequence (P05177 1-516): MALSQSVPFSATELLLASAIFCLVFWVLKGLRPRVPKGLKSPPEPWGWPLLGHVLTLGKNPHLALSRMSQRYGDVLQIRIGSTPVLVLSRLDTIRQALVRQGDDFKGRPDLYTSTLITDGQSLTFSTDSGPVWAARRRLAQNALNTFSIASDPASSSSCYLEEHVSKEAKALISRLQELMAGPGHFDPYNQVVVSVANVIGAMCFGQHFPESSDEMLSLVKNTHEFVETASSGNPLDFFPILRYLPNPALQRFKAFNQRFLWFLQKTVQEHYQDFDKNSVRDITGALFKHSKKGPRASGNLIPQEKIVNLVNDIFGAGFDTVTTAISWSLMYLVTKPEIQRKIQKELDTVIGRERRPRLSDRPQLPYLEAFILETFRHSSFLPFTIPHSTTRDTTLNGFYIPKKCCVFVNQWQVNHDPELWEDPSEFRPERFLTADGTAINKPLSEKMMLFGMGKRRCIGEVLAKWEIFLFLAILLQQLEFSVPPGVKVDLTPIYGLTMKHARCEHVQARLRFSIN

[2] = target: T2, human CYP2C9 (Homo sapiens, UniProt P11712); assay: biochemical; details: for AC50: CYP2C9 AC50 (half-maximal activity concentration)
T2 sequence (P11712 whole entry): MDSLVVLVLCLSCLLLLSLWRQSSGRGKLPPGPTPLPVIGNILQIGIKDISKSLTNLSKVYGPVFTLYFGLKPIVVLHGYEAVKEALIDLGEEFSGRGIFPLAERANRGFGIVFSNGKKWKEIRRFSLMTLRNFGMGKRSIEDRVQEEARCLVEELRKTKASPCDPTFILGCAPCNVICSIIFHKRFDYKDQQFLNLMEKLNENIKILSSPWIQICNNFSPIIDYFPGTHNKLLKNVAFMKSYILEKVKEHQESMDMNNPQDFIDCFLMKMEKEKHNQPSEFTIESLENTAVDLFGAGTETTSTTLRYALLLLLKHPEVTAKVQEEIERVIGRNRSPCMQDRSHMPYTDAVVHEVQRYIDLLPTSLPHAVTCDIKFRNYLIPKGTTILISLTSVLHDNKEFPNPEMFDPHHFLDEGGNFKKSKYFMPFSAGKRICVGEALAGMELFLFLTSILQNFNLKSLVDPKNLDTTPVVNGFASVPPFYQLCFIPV

[3] = target: T3, human CYP2C19 (Homo sapiens, UniProt P33261); assay: biochemical; details: for AC50: CYP2C19 AC50 (half-maximal activity concentration)
T3 sequence (P33261 whole entry): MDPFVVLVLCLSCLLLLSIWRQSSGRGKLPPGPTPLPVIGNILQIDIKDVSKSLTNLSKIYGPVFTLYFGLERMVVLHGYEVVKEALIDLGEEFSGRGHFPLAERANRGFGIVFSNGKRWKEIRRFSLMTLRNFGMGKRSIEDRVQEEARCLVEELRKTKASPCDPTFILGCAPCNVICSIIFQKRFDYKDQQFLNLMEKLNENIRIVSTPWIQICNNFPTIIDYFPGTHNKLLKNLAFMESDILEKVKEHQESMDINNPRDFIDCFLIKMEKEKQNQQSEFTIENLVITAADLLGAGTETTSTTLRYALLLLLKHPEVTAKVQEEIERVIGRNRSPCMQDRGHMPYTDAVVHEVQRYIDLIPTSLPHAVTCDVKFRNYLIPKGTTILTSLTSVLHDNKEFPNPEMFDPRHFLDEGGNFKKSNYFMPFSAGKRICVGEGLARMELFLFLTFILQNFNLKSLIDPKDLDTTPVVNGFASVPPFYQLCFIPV

[4] = target: T4, human CYP2D6 (Homo sapiens, UniProt P10635); assay: biochemical
T4 sequence (P10635 whole entry): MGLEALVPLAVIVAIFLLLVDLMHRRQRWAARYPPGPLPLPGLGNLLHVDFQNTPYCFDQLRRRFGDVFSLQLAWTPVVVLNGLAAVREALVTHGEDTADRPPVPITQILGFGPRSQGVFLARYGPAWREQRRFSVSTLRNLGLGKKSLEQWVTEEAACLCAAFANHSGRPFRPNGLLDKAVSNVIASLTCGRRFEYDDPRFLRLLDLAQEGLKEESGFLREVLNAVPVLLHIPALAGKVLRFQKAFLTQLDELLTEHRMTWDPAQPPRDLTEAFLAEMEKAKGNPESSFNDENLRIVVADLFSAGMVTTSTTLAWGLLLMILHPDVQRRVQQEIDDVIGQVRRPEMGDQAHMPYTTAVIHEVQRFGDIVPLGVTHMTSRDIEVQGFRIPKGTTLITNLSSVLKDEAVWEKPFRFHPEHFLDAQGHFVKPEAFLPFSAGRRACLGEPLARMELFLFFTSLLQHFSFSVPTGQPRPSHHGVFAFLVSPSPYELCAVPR

[5] = target: T3, human CYP2C19
[6] = target: T1, human CYP1A2
[7] = target: T2, human CYP2C9; details: human
[8] = target: T4, human CYP2D6; details: human
[9] = CYP1A2 IC50 (half-maximal inhibitory concentration)
[10] = CYP2C9 IC50 (half-maximal inhibitory concentration)
[11] = CYP2C19 IC50 (half-maximal inhibitory concentration)
[12] = CYP2D6 IC50 (half-maximal inhibitory concentration)
[13] = CYP2D6 AC50 (half-maximal activity concentration)

## Cc1[nH]cnc1CN1CCc2c(c3ccccc3n2C)C1=O [Alosetron hydrochloride]
[1]; [9]
  IC50: 0.89 µM
[2]; [10]
  IC50: 1.66 µM
[3]; [11]
  IC50: 27.8 µM
[4]; [12]
  IC50: 10.8 µM

## CC1=C(C(=O)OC(C)C)C(c2cccc([N+](=O)[O-])c2)C(C(=O)OC2CN(C(c3ccccc3)c3ccccc3)C2)=C(N)N1 (centres unmarked) [Azelnidipine]
[2]
  IC50: 1.56 ± 0.18 µM
[3]
  IC50: 2.43 ± 0.68 µM
[4]
  IC50: 13.2 ± 3.2 µM

## COc1ccc2cc3[n+](cc2c1OC)CCc1cc2c(cc1-3)OCO2 [Berberine chloride]
[1]; [9]
  IC50: 23.6 µM
[3]; [11]
  IC50: 26.9 µM
[4]; [12]
  IC50: 0.52 µM

## CCCCC(=O)O[C@]1(C(=O)CO)[C@@H](C)C[C@H]2[C@@H]3CCC4=CC(=O)C=C[C@]4(C)[C@@]3(F)[C@@H](O)C[C@@]21C [Betamethasone valerate]
[2]; [10]
  IC50: 17.4 µM
[3]; [11]
  IC50: 31.1 µM
[4]; [12]
  IC50: 39.1 µM

## O=C1CC2(CCCC2)CC(=O)N1CCNCC1COc2ccccc2O1 (centres unmarked) [Binospirone mesylate]
[2]
  IC50: 23.5 ± 5.69 µM
[3]
  IC50: 8.77 ± 1.42 µM
[4]
  IC50: 0.29 ± 0.02 µM

## Cc1cc2c(OCC(CNC(C)(C)C)OC(=O)c3ccccc3)cccc2[nH]1 (centres unmarked) [Bopindolol]
[2]
  IC50: 6.95 ± 0.8 µM
[3]
  IC50: 23.9 ± 13 µM
[4]
  IC50: 0.64 ± 0.04 µM

## CCCC(=O)O[C@]1(C(=O)CCl)[C@@H](C)C[C@H]2[C@@H]3CCC4=CC(=O)C=C[C@]4(C)[C@@]3(F)C(=O)C[C@@]21C [Clobetasone butyrate]
[2]; [10]
  IC50: 17.6 µM
[3]; [11]
  IC50: 8.43 µM
[4]; [12]
  IC50: 7.77 µM

## CN1CCC(=C2c3ccccc3C=Cc3ccccc32)CC1 [Cyproheptadine hydrochloride]
[3]
  AC50: 21.5 µM
[4]; [13]
  AC50: 2.67 µM

## O=C(Nc1ccccc1)OCC(CN1CCCCC1)OC(=O)Nc1ccccc1 (centres unmarked) [Diperodon hydrochloride]
[2]; [10]
  IC50: 20.8 µM
[3]; [11]
  IC50: 7.12 µM
[4]; [12]
  IC50: 0.36 µM

## CCCCOc1ccc(C(=O)CCN2CCCCC2)cc1 [Dyclonine hydrochloride]
[2]
  AC50: 14.5 µM
[4]; [13]
  AC50: 6.92 µM

## CCN(CC)CCOc1ccccc1C(=O)CCc1ccccc1 [Etafenone]
[1]
  IC50: 6.05 ± 1.51 µM
[3]
  IC50: 35.6 ± 11.4 µM
[4]
  IC50: 0.64 ± 0.08 µM

## CC(Cc1ccccc1)NCCn1cnc2c1c(=O)n(C)c(=O)n2C (centres unmarked) [Fenethylline hydrochloride]
[3]; [11]
  IC50: 85.1 µM
[4]; [12]
  IC50: 5.37 µM

## O=C(CN1CCN(Cc2ccc3c(c2)OCO3)CC1)N1c2ccccc2Sc2ccccc21 [Fenoverine]
[2]; [10]
  IC50: 18.9 µM
[3]; [11]
  IC50: 40.7 µM
[4]; [12]
  IC50: 0.46 µM

## CCC(=O)O[C@]1(C(=O)SCF)[C@H](C)C[C@H]2[C@@H]3C[C@H](F)C4=CC(=O)C=C[C@]4(C)[C@@]3(F)[C@@H](O)C[C@@]21C [Fluticasone propionate]
[2]; [10]
  IC50: 4.84 µM
[4]; [12]
  IC50: 13 µM

## CN1CCN(CCC(=O)N2c3ccccc3Sc3ccc(C(F)(F)F)cc32)CC1 [Ftormetazine]
[1]; [9]
  IC50: 29.2 µM
[3]; [11]
  IC50: 27 µM
[4]; [12]
  IC50: 0.14 µM

## N=C(N)NC(=O)Cc1c(Cl)cccc1Cl [Guanfacine hydrochloride]
[5]
  CYP2C19 AC50 (half-maximal activity concentration): Inactive
[6]
  CYP1A2 AC50 (half-maximal activity concentration): Inactive
[2]
  AC50: 27.3 µM
[4]; [13]
  AC50: 25.8 µM

## COc1cc(C(C)=O)ccc1OCCCN1CCC(c2noc3cc(F)ccc23)CC1 [Iloperidone]
[2]
  IC50: 22.9 ± 14.1 µM
[4]
  IC50: 10.1 ± 2.8 µM

## CN1CCC(=C2c3ccccc3CC(=O)c3sccc32)CC1 [Ketotifen]
[3]
  AC50: 37.5 µM
[4]; [13]
  AC50: 2.2 µM

## COC(=O)C1=C(C)NC(C)=C(C(=O)OC(C)(C)CN(C)CCC(c2ccccc2)c2ccccc2)C1c1cccc([N+](=O)[O-])c1 (centres unmarked) [Lercanidipine hydrochloride]
[1]
  IC50: 32.8 ± 2.67 µM
[2]
  IC50: 2.89 ± 0.52 µM
[4]
  IC50: 4.44 ± 1.02 µM

## O=C(O)c1nn(Cc2ccc(Cl)cc2Cl)c2ccccc12 [Lonidamine]
[2]
  AC50: 68 µM
[4]; [13]
  AC50: 66 µM

## Cc1nc(N)nc(N)c1-c1ccc(Cl)c(Cl)c1 [Methodichlorophen]
[4]
  AC50: 2.3 ± 0.41 µM

## Clc1ccc(C(c2ccccc2Cl)C(Cl)Cl)cc1 (centres unmarked) [Mitotane]
[7]
  CYP2C9 Efficacy (in parenthesis): 10.57 ± 0.69 (-106 ± 4) %
[5]; human
  CYP2C19 Efficacy (in parenthesis): 0.82 ± 0.15 (-131 ± 13) %
[8]
  CYP2D6 Efficacy (in parenthesis): 32.45 ± 5.84 (-38 ± 9) %
[2]
  AC50: 10.6 µM
[2]; [10]
  IC50: 10.6 µM
[3]
  AC50: 0.82 µM
[3]; [11]
  IC50: 0.82 µM
[4]; [13]
  AC50: 32.4 µM
[4]; [12]
  IC50: 32.4 µM

## C[C@@H]1C[C@H]2[C@@H]3CCC4=CC(=O)C=C[C@]4(C)[C@@]3(Cl)[C@@H](O)C[C@]2(C)[C@@]1(OC(=O)c1ccco1)C(=O)CCl [Mometasone furoate, reference compound]
[2]; [10]
  IC50: 8.08 µM
[3]; [11]
  IC50: 7.97 µM
[4]; [12]
  IC50: 3.75 µM
